Results on 20 compounds are retold here after patent publication US20120115907A1, “NOVEL COMPOUNDS AS INHIBITORS OF RENIN” (CADILA HEALTHCARE LIMITED, priority 2009, published 2012).

This assay has as its target T1, human recombinant renin (Homo sapiens, UniProt P00797).
T1 construct: purchased Cayman 10006270
T1 sequence (P00797 67-406): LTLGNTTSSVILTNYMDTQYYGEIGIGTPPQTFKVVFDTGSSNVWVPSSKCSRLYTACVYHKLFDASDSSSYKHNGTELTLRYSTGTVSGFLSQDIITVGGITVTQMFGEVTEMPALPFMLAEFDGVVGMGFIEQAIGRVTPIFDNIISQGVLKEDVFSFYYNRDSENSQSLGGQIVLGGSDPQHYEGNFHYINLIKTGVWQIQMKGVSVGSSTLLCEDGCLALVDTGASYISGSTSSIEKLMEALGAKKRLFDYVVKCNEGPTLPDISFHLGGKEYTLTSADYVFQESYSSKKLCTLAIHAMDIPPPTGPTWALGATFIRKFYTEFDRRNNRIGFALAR
In words: Inhibition of human recombinant renin (modified Cayman renin inhibitor screening assay, fluorescence). The note with it: for inhibition at 0.01 µM / Renin inhibition (percent inhibition of renin activity) at 0.01 μM: 0.01 μM compound; for inhibition at 0.01 µM / inhibition at 0.1 µM / Renin inhibition (percent inhibition of renin activity) at 0.01 μM / Renin inhibition (percent inhibition of renin activity) at 0.1 μM: 37° C., 30 mins, human recombinant renin; for inhibition at 0.01 µM: read-out: Renin inhibition (percent inhibition of renin activity) at 0.01 μM; for inhibition at 0.1 µM / Renin inhibition (percent inhibition of renin activity) at 0.1 μM: 0.1 μM compound; for inhibition at 0.1 µM: read-out: Renin inhibition (percent inhibition of renin activity) at 0.1 μM. The format is biochemical. How it is done:
In-vitro protocol for the Inhibition of human recombinant renin by the compound of invention • Procedure: The enzymatic in vitro assay was performed in 96 well polypropylene plate (Nunc), using a modified Renin inhibitor screening assay protocol (Cayman, cat no: 10006270). The reaction system comprised assay buffer containing 50 mM Tris-HCL, pH=8.0 & 100 mM sodium chloride, human recombinant rennin (1:20 diluted with fixed activity), synthetic renin substrates (Cayman, cat no: 10006906) (14.4 μM) and different concentrations of renin inhibitors in DMSO in a total reaction system of 100 μl. The entire reaction mixture were incubated at 37° C. for 30 mins and the fluorescence was read at excitation wavelengths of 320-360 nm and emission wavelengths of 490-520 nm. Test compounds efficacy was determined by the percent inhibition of renin activity using Aliskiren (Tekturna) as a reference standard.
Following table represents measured IC50 values of the selected compounds for its inhibition of human recombinant renin.

Counter-ions that a name gives are not always drawn.

The term inhibition denotes the drop in the measured response relative to a control, in per cent. For the compound `COc1ccccc1COCCCOc1ccc(C(=O)N[C@H]2CCNCC2C(=O)N(Cc2ccccc2OC)C2CC2)cc1` (stereo partly drawn) [Example 33, (4S)—N-Cyclopropyl-N-(2-methoxybenzyl)-4-(4-(3-((2-methoxybenzyl)oxy)propoxy)benzamido)piperidine-3-carboxamide hydrochloride], the inhibition at 0.01 µM is below 10% and the inhibition at 0.1 µM turned out to be 17%.
The matching figures for `COc1ccccc1COCCOc1ccc(C(=O)N[C@H]2CCNCC2C(=O)N(Cc2cccc(C)c2C)C2CC2)cc1` (stereo partly drawn) [Example 16, (4S)—N-Cyclopropyl-N-(2,3-dimethylbenzyl)-4-(4-(2-((2-methoxybenzyl)oxy)ethoxy)benzamido)piperidine-3-carboxamide]: 11% and 52%.
Broadly, the IC50 is the concentration at which inhibition is half-maximal. As for `Cc1cc(Cl)c(OCCOc2ccc(C(=O)NC3CCNCC3C(=O)N(Cc3ccc(Cl)cc3Cl)C3CC3)cc2)c(Cl)c1` (mixture of isomers) [Example 5, N-Cyclopropyl-4-(4-(2-(2,6-dichloro-4-methylphenoxy)ethoxy)benzamido)-N-(2,4-dichlorobenzyl)piperidine-3-carboxamide], the IC50 is 39 nM, the inhibition at 0.01 µM turned out to be 42% and the inhibition at 0.1 µM amounted to 81%.
For `COc1ccccc1COCCCOc1ccc(C(=O)N[C@H]2CCNCC2C(=O)N(Cc2cccc(C)c2C)C2CC2)cc1.Cl` (some centres unmarked) [Example 27], under “hydrochloride”, the “Renin inhibition (percent inhibition of renin activity) at 0.01 μM” value was “* (Inactive at tested concentration)”. In addition, the “Renin inhibition (percent inhibition of renin activity) at 0.1 μM” value (hydrochloride, 0.1 µM) worked out at 38%.
Turning to `COc1cccc(CN(C(=O)C2CNCC[C@@H]2NC(=O)c2ccc(OCCOc3c(Cl)cc(C)cc3Cl)cc2)C2CC2)c1OC.Cl` (stereo partly drawn) [Example 14, (4S)—N-cyclopropyl-4-(4-(2-(2,6-dichloro-4-methylphenoxy)ethoxy)benzamido)-N-(2,3-dimethoxybenzyl)piperidine-3-carboxamide hydrochloride], the inhibition at 0.01 µM amounted to 19%. Moreover, the “Renin inhibition (percent inhibition of renin activity) at 0.1 μM” value (hydrochloride, 0.1 µM) turned out to be 66%.
Regarding `COc1cccc(CN(C(=O)C2CNCC[C@@H]2NC(=O)c2ccc(OCCOc3c(Cl)cc(C)cc3Cl)cc2)C2CC2)c1C` (stereo partly drawn) [Example 37, (4S)—N-Cyclopropyl-4-(4-(2-(2,6-dichloro-4-methylphenoxy)ethoxy)benzamido)-N-(3-methoxy-2-methylbenzyl)piperidine-3-carboxamide hydrochloride], the IC50 is 17 nM, the inhibition at 0.01 µM was determined as 24% and the inhibition at 0.1 µM was 81%.
In the case of `Cc1cc(Cl)c(OCCOc2ccc(C(=O)N[C@H]3CCNCC3C(=O)N(Cc3ccc(C)c(C)c3)C3CC3)cc2)c(Cl)c1.Cl` (some centres unmarked) [Example 18], the “Renin inhibition (percent inhibition of renin activity) at 0.01 μM” value is on record as 20% and the “Renin inhibition (percent inhibition of renin activity) at 0.1 μM” value is 56%.
With `Cc1cc(Cl)c(OCCOc2ccc(C(=O)N[C@H]3CCNCC3C(=O)N(Cc3ccccc3Cl)C3CC3)cc2)c(Cl)c1` (stereo partly drawn) [Example 30, (4S)—N-(2-Chlorobenzyl)-N-cyclopropyl-4-(4-(2-(2,6-dichloro-4-methylphenoxy)ethoxy)benzamido)piperidine-3-carboxamide hydrochloride], the inhibition at 0.01 µM is below 10% and the inhibition at 0.1 µM was determined as 87%.
For `Cc1cc(Cl)c(OCCOc2ccc(C(=O)N[C@@H]3CCNCC3C(=O)N(Cc3cccc(C)c3C)C3CC3)cc2)c(Cl)c1` (stereo partly drawn) [Example 24, (4R)—N-Cyclopropyl-4-(4-(2-(2,6-dichloro-4-methylphenoxy)ethoxy)benzamido)-N-(2,3-dimethylbenzyl)piperidine-3-carboxamide hydrochloride], the inhibition at 0.01 µM came to 10% and the inhibition at 0.1 µM is 83%.
`O=C(NC1CCNCC1C(=O)N(Cc1ccc(Cl)cc1Cl)C1CC1)c1ccc(OCCOc2c(Cl)cccc2Cl)cc1` (centres unmarked) [Example 6, N-Cyclopropyl-N-(2,4-dichlorobenzyl)-4-(4-(2-(2,6-dichlorophenoxy)ethoxy)benzamido) piperidine-3-carboxamide]: the “Renin inhibition (percent inhibition of renin activity) at 0.01 μM” value is “* (Inactive at tested concentration)” and the “Renin inhibition (percent inhibition of renin activity) at 0.1 μM” value is reported as 40%.
As to `Cc1cc(Cl)c(OCCOc2ccc(C(=O)N[C@H]3CCNCC3C(=O)N(Cc3ccccc3F)C3CC3)cc2)c(Cl)c1` (stereo partly drawn) [Example 29, (4S)—N-Cyclopropyl-4-(4-(2-(2,6-dichloro-4-methylphenoxy)ethoxy)benzamido)-N-(2-fluorobenzyl)piperidine-3-carboxamide hydrochloride], the inhibition at 0.01 µM was 11% and the inhibition at 0.1 µM came to 65%.
For `Cc1cc(Cl)c(OCCOc2ccc(C(=O)N[C@H]3CCNCC3C(=O)N(Cc3cccc(Cl)c3Cl)C3CC3)cc2)c(Cl)c1` (stereo partly drawn) [Example 35, (4S)—N-Cyclopropyl-4-(4-(2-(2,6-dichloro-4-methylphenoxy)ethoxy)benzamido)-N-(2,3-dichlorobenzyl)piperidine-3-carboxamide hydrochloride] the same measures were 60% and 95%.
With `COc1ccccc1COCCCOc1ccc(C(=O)N[C@H]2CCNCC2C(=O)N(Cc2cccc(C)c2C)C2CC2)cc1` (stereo partly drawn) [Example 28, (4S)—N-Cyclopropyl-N-(2,3-dimethylbenzyl)-4-(4-(3-((2-methoxybenzyl)oxy)propoxy)benzamido)piperidine-3-carboxamide hydrochloride], the inhibition at 0.01 µM was 60% and the inhibition at 0.1 µM stood at 93%.
For the compound `Cc1cc(Cl)c(OCCOc2ccc(C(=O)N[C@@H]3CCNCC3C(=O)N(Cc3ccc(C)c(C)c3)C3CC3)cc2)c(Cl)c1` (stereo partly drawn) [Example 22, (4R)—N-Cyclopropyl-4-(4-(2-(2,6-dichloro-4-methylphenoxy)ethoxy)benzamido)-N-(3,4-dimethylbenzyl)piperidine-3-carboxamide hydrochloride], the inhibition at 0.01 µM was below 10% and the inhibition at 0.1 µM is 40%.
For `COCCCOc1cccc(CN(C(=O)C2CNCCC2NC(=O)c2ccc(OCCOc3c(Cl)cccc3Cl)cc2)C2CC2)c1` (centres unmarked) [Example 3, N-Cyclopropyl-4-(4-(2-(2,6-dichlorophenoxy)ethoxy)benzamido)-N-(3-(3-methoxypropoxy)benzyl)piperidine-3-carboxamide] the same measures were below 10% and 43%.
Take `COc1ccc(CN(C(=O)C2CNCCC2NC(=O)c2ccc(OCCOc3c(Cl)cc(C)cc3Cl)cc2)C2CC2)cc1OC` (centres unmarked) [Example 8, N-Cyclopropyl-4-(4-(2-(2,6-dichloro-4-methylphenoxy)ethoxy)benzamido)-N-(3,4-dimethoxybenzyl)piperidine-3-carboxamide]: the inhibition at 0.01 µM is below 10% and the inhibition at 0.1 µM was 41%.
For `Cc1cc(C)cc(CN(C(=O)C2CNCCC2NC(=O)c2ccc(OCCOc3c(Cl)cc(C)cc3Cl)cc2)C2CC2)c1` (centres unmarked) [Example 10, N-Cyclopropyl-4-(4-(2-(2,6-dichloro-4-methylphenoxy)ethoxy)benzamido)-N-(3,5-dimethylbenzyl)piperidine-3-carboxamide] the same measures were below 10% and 44%.
As for `Cc1cc(C)cc(CN(C(=O)C2CNCCC2NC(=O)c2ccc(OCCOc3c(Cl)cccc3Cl)cc2)C2CC2)c1` (centres unmarked) [Example 4, N-Cyclopropyl-4-(4-(2-(2,6-dichlorophenoxy)ethoxy)benzamido)-N-(3,5-dimethylbenzyl)piperidine-3-carboxamide], the inhibition at 0.01 µM was below 10% and the inhibition at 0.1 µM was 47%.
Regarding `Cc1cc(Cl)c(OCCOc2ccc(C(=O)NC3CCNCC3C(=O)N(Cc3ccc4ccccc4c3)C3CC3)cc2)c(Cl)c1` (centres unmarked) [Example 12, N-Cyclopropyl-4-(4-(2-(2,6-dichloro-4-methylphenoxy)ethoxy)benzamido)-N-(naphthalen-2-ylmethyl)piperidine-3-carboxamide], the IC50 was 64 nM, the inhibition at 0.01 µM amounted to 43% and the inhibition at 0.1 µM was determined as 89%.
With `Cc1cc(Cl)c(OCCOc2ccc(C(=O)N[C@H]3CCNCC3C(=O)N(Cc3cccc(C)c3C)C3CC3)cc2)c(Cl)c1` (stereo partly drawn) [Example 20, (4S)—N-Cyclopropyl-4-(4-(2-(2,6-dichloro-4-methylphenoxy)ethoxy)benzamido)-N-(2,3-dimethylbenzyl)piperidine-3-carboxamide hydrochloride], the IC50 turned out to be 13 nM, the inhibition at 0.01 µM worked out at 48% and the inhibition at 0.1 µM came to 91%.
